Results published in patent publication US20210046063A1 (University of Kentucky Research Foundation, priority 2019, published 2021).
“Also recorded” adds a separate entry of the source.

Key:
[1] = system: lung cancer cell lines (A549/EML4-ALK, A549, A549TR, H1299, KP-7B); assay: Apoptosis of lung cancer cells (ICC for active caspase-3, scored by confocal microscopy); type: cell-based; conditions: 24 h
Procedure: Lung cancer cells treated with vehicle, CQ (100 nM), CZT (25 μM), and a combination of CZT (1 μM) and CQ (25 nM) for 24 h.

Par-4 secretion = conditions: cited from earlier work
LLC1 cells = assay: LLC1-derived lung tumor nodules in mice; type: in vivo; conditions: FIG. 2
Procedure: Mice were injected i.v. with LLC1 cells, and 24 h later injected i.p. with CQ (25 mg/kg body weight), CZT (10 mg/kg body weight), CQ+CZT (25 and 10 mg/kg, resp.) or vehicle once every day for 5 consecutive days. After 28 days, the lungs were scored for tumor nodules. *P<0.01 by Anova test.

[2] = system: GRP78 on lung cancer cell surface; assay: Analysis for GRP78 at the cell surface of lung cancer cells; type: cell-based; conditions: CZT (1 μM), 24 h, FIG. 1B
Excerpt: Analysis for GRP78 at the cell surface. Mean+SD shown. *P<0.01 by Anova or Student's t test. P>0.05 by Anova.
A lack of cell surface […] expression may prevent secreted Par-4 from inducing apoptosis in cancer cells.

Par-4 = conditions: cancer patients, Phase 1 clinical trials; cited from earlier work

CCN(CC)CCCC(C)Nc1ccnc2cc(Cl)ccc12 (stereo not drawn) [CQ, Chloroquine]
apoptosis, CQ in conjunction with CZT added directly to cancer cells ([1]; combination of CZT (1 μM) and CQ (25 nM), P>0.05, FIG. 1C): did not induce apoptosis
Par-4 secretion from lung cancer cells (Par-4 secretion; lung cancer cells): did not show secretion of Par-4
Par-4 secretion from normal cells (Par-4 secretion; normal cells, cell culture and mice): increased Par-4 secretion from normal cells
inhibition of lung tumor nodules by CQ in the presence of CZT, relative to CZT or CQ administered separately (LLC1 cells; LLC1-derived nodules in mice, CQ 25 mg/kg + CZT 10 mg/kg i.p.): significantly greater inhibition

C[C@@H](Oc1cc(-c2cnn(C3CCNCC3)c2)cnc1N)c1c(Cl)ccc(F)c1Cl [CZT, Crizotinib]
inhibition of lung tumor growth (lung tumor nodules) (LLC1 cells; LLC1 cells i.v., i.p. CQ 25 mg/kg, CZT 10 mg/kg, once daily for 5 days, lungs scored after 28 days): significant inhibition of lung tumor growth; also recorded: showed an effect
GRP78 expression at the cell surface [2]: upregulates GRP78 expression on the surface of lung cancer cells; also recorded: elevation of Par-4 receptor GRP78 on lung tumor cell surface

CCN(CCO)CCCC(C)Nc1ccnc2cc(Cl)ccc12 (stereo not drawn) [HCQ, hydroxychloroquine]
Par-4 levels in plasma (Par-4): elevated Par-4 levels in the plasma
apoptosis in patients' tumors (Par-4): induced apoptosis in their tumors

B1: recombinant Par-4: recombinant tumor suppressor Prostate Apoptosis Response-4 protein, binds receptor GRP78 (protein, UniProt Q96IZ0 1-340, looked up)
PRKC apoptosis WT1 regulator …: MATGGYRTSSGLGGSTTDFLEEWKAKREKMRAKQNPPGPAPPGGGSSDAAGKPPAGALGTPAAAAANELNNNLPGGAPAAPAVPGPGGVNCAVGSAMLTRAAPGPRRSEDEPPAASASAAPPPQRDEEEPDGVPEKGKSSGPSARKGKGQIEKRKLREKRRSTGVVNIPAAECLDEYEDDEAGQKERKREDAITQQNTIQNEAVNLLDPGSSYLLQEPPRTVSGRYKSTTSVSEEDVSSRYSRTDRSGFPRYNRDANVSGTLVSSSTLEKKIEDLEKEVVRERQENLRLVRLMQDKEEMIGKLKEEIDLLNRDLDDIEDENEQLKQENKTLLKVVGQLTR
apoptosis (active caspase-3 positive cells), CZT together with recombinant Par-4 ([1]; CZT (1 μM) + recombinant Par-4 (100 nM), A549/EML4-ALK, A549, A549TR, H1299, KP-7B cells, FIG. 1A): increased apoptosis
